According to ChEMBL document CHEMBL5113400, “Design, synthesis, and biological evaluation of trizole-based heteroaromatic derivatives as Bcr-Abl kinase inhibitors” (Eur J Med Chem, 2022):
Active and inactive are the calls of the source. No cut-off for these calls is given here.

How the values were obtained:
K562 [1] = experiment: Induction of apoptosis in human K562 cells assessed as early apoptotic cells at 10 uM incubated for 48 hrs by Annexin V-FITC/PI staining based flow cytometry analysis (Rvb= 4.35%); type: functional
HEK293 = experiment: Cytotoxicity against human HEK293 cells assessed as inhibition of cell growth upto 100 uM incubated for 48 hrs by MTT assay; type: toxicity, cell-based; details: hek293, 48 h
BaF3 [2] = experiment: Antiproliferative activity against mouse BaF3 cells expressing wild type Bcr-Abl assessed as inhibition of cell growth incubated for 72 hrs by CellTiter-Glo luminescent assay; type: functional, cell-based; details: BaF3, 72 h
K562 [3] = experiment: Induction of apoptosis in human K562 cells assessed as necrotic cells at 5 uM incubated for 48 hrs by Annexin V-FITC/PI staining based flow cytometry analysis (Rvb= 0.09%); type: functional
[4] = target: Tyrosine-protein kinase receptor UFO (Homo sapiens) (UniProt P30530); experiment: Inhibition of recombinant human AXL at 10 uM for 10 mins followed by substrate addition in presence of ATP and measured after 100 mins by ADP-Glo kinase assay; details: time 110.0 min
Sequence of Tyrosine-protein kinase receptor UFO (Homo sapiens) (P30530 whole entry): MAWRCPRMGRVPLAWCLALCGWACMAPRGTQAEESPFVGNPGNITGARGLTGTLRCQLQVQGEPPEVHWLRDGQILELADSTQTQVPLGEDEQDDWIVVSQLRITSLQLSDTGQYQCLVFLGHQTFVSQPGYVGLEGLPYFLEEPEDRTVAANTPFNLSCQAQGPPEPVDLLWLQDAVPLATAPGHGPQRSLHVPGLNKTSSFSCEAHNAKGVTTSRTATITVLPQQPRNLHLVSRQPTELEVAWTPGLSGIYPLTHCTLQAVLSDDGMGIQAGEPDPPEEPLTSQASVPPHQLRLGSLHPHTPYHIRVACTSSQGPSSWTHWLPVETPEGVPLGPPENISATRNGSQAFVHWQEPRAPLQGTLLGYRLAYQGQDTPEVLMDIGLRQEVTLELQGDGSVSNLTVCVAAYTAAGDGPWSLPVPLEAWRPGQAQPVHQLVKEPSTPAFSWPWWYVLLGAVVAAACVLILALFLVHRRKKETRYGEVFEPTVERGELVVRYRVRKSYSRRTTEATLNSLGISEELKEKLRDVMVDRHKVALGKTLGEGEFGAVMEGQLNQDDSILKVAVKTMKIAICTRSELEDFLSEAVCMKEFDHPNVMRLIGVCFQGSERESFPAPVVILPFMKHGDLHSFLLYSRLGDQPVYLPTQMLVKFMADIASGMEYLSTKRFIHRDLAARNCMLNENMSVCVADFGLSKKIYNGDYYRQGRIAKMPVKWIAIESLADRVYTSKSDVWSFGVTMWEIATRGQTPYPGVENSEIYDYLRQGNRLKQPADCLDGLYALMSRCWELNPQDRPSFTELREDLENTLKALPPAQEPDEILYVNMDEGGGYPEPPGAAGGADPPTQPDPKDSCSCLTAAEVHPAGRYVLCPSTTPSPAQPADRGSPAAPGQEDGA

[5] = target: Dual specificity protein kinase CLK1 (Homo sapiens) (UniProt P49759); experiment: Inhibition of recombinant human CLK1 at 10 uM for 10 mins followed by substrate addition in presence of ATP and measured after 100 mins by ADP-Glo kinase assay; details: time 110.0 min
Sequence of Dual specificity protein kinase CLK1 (Homo sapiens) (P49759 whole entry, looked up, the tested form may be a part): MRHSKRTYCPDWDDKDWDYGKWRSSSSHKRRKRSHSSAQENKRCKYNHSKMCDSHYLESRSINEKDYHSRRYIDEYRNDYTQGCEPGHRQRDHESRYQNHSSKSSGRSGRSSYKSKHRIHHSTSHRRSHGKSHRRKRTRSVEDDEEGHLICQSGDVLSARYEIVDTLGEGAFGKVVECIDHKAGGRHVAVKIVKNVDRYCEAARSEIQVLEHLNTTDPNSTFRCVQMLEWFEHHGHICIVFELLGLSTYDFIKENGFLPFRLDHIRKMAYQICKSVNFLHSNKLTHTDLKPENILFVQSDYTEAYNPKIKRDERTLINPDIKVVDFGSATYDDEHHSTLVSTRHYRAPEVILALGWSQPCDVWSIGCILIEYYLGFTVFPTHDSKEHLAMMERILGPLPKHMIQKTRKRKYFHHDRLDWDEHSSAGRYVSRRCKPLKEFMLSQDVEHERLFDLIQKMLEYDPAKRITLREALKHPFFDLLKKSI

K562 [6] = experiment: Induction of apoptosis in human K562 cells assessed as necrotic cells at 10 uM incubated for 48 hrs by Annexin V-FITC/PI staining based flow cytometry analysis (Rvb= 0.09%); type: functional
K562 [7] = experiment: Induction of apoptosis in human K562 cells assessed as early apoptotic cells at 1 uM incubated for 48 hrs by Annexin V-FITC/PI staining based flow cytometry analysis (Rvb= 4.35%); type: functional
K562 [8] = experiment: Induction of cell cycle arrest in human K562 cells assessed as accumulation at G2/M phase at 1 to 10 uM incubated for 48 hrs by PI staining based flow cytometry (Rvb= 12.23%); type: functional; details: dose 1-10 µM
[9] = target: Dual specificity protein kinase CLK1 (Homo sapiens) (UniProt P49759); experiment: Inhibition of recombinant human CLK1 at 10 uM for 10 mins followed by substrate addition in presence of ATP and measured after 60 mins by HTRF assay; details: time 70.0 min
[10] = target: Bcr/Abl fusion protein (Homo sapiens) (UniProt P00519+P11274); experiment: Inhibition of Bcr-Abl phosphorylation at Tyr245 residue in human K562 cells expressing wild type Bcr-Abl at 0.1 to 15 uM measured after 48 hrs by Western blot analysis; type: cell-based; details: dose 0.1-15 µM, DDE = dose-dependent effect
K562 [11] = experiment: Induction of apoptosis in human K562 cells assessed as late apoptotic cells at 1 uM incubated for 48 hrs by Annexin V-FITC/PI staining based flow cytometry analysis (Rvb= 14.66%); type: functional
[12] = target: Platelet-derived growth factor receptor alpha (Homo sapiens) (UniProt P16234); experiment: Inhibition of recombinant human PDGFRalpha at 10 uM for 10 mins followed by substrate addition in presence of ATP and measured after 100 mins by ADP-Glo kinase assay; details: time 110.0 min
Sequence of Platelet-derived growth factor receptor alpha (Homo sapiens) (P16234 whole entry): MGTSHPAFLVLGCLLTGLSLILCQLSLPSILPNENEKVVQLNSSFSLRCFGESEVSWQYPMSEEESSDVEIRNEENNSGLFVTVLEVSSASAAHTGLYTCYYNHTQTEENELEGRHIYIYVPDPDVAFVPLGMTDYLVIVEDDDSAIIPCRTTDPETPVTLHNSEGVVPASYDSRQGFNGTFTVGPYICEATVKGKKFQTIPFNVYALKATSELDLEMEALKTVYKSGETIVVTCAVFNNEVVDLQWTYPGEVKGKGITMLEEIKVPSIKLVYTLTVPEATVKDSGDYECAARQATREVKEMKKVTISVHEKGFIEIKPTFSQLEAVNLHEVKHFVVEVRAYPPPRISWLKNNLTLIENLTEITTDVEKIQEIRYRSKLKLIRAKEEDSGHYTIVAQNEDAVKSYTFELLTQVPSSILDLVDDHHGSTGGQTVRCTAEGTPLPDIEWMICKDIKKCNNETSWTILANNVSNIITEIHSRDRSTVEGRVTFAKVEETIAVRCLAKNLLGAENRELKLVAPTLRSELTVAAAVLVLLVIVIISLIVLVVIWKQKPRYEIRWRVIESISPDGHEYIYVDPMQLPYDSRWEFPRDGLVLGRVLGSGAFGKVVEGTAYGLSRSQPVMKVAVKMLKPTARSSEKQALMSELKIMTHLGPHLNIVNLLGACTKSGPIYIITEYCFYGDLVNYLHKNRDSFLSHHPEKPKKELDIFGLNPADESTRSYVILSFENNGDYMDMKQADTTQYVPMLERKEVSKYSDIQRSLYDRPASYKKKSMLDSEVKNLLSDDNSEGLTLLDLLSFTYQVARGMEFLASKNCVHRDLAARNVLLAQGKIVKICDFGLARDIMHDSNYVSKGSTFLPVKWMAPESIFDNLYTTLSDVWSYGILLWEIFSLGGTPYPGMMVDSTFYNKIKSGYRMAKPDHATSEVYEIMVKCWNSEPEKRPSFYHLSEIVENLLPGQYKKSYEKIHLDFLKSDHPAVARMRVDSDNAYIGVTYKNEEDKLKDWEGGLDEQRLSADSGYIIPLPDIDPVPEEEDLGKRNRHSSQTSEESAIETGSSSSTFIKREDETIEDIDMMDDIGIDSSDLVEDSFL

K562 [13] = experiment: Induction of apoptosis in human K562 cells assessed as early apoptotic cells at 5 uM incubated for 48 hrs by Annexin V-FITC/PI staining based flow cytometry analysis (Rvb= 4.35%); type: functional
K562 [14] = experiment: Induction of cell cycle arrest in human K562 cells assessed as reduction in G0/G1 phase at 1 to 10 uM incubated for 48 hrs by PI staining based flow cytometry; type: functional; details: dose 1-10 µM
[15] = target: BDNF/NT-3 growth factors receptor (Homo sapiens) (UniProt Q16620); experiment: Inhibition of recombinant human TRKB at 10 uM for 10 mins followed by substrate addition in presence of ATP and measured after 60 mins by HTRF assay; details: time 70.0 min
Sequence of BDNF/NT-3 growth factors receptor (Homo sapiens) (Q16620 32-822 limits assumed): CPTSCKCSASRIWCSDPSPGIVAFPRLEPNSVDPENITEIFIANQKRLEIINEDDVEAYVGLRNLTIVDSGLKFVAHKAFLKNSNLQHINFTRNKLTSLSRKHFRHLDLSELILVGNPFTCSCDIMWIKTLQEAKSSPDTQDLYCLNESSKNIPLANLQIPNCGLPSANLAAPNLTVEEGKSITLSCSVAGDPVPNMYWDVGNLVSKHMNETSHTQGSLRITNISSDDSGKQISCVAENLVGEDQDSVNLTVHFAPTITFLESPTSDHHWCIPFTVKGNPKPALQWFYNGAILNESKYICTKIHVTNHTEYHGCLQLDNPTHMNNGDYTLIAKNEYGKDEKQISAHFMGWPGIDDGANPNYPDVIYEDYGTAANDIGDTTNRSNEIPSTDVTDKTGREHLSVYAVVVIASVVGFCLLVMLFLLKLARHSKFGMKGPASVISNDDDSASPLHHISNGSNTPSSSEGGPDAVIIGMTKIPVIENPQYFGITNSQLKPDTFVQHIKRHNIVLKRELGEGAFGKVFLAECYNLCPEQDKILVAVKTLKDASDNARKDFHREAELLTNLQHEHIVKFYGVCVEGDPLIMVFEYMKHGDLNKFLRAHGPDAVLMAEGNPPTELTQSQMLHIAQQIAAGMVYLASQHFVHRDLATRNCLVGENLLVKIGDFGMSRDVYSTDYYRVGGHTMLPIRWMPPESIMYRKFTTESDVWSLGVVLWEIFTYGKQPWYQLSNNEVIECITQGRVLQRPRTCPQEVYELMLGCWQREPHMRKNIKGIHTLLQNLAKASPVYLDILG

K562 [16] = experiment: Antiproliferative activity against human K562 cells assessed as inhibition of cell growth incubated for 48 hrs by MTT assay; type: functional, cell-based; details: K562, 48 h
K562 [17] = experiment: Induction of apoptosis in human K562 cells assessed as late apoptotic cells at 10 uM incubated for 48 hrs by Annexin V-FITC/PI staining based flow cytometry analysis (Rvb= 14.66%); type: functional
[18] = target: T1, Tyrosine-protein kinase ITK/TSK (Homo sapiens) (UniProt Q08881); experiment: Inhibition of recombinant human ITK at 10 uM for 10 mins followed by substrate addition in presence of ATP and measured after 60 mins by HTRF assay; details: time 70.0 min
T1 sequence (whole entry): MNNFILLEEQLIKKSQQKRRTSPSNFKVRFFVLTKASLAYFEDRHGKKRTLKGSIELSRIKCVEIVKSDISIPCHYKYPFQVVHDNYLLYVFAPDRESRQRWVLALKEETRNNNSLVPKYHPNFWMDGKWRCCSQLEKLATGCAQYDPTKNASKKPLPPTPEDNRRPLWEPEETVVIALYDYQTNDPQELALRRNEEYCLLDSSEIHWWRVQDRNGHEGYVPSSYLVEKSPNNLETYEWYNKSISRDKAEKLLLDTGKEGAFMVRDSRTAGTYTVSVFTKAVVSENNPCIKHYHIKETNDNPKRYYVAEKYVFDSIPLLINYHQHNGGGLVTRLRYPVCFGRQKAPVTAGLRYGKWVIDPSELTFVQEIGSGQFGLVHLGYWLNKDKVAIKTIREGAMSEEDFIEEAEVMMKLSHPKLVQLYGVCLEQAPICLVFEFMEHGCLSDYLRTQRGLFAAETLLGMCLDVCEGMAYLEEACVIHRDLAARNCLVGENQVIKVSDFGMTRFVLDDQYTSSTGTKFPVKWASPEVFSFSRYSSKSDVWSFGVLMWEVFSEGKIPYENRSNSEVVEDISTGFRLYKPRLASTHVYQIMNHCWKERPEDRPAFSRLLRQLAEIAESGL

K-562R = experiment: Antiproliferative activity against human K-562R cells expressing Bcr-Abl T315I mutant assessed as inhibition of cell growth incubated for 48 hrs by MTT assay; type: functional, cell-based
[19] = target: Tyrosine-protein kinase receptor UFO (Homo sapiens) (UniProt P30530); experiment: Inhibition of recombinant human AXL at 10 uM for 10 mins followed by substrate addition in presence of ATP and measured after 60 mins by HTRF assay; details: time 70.0 min
[20] = target: Platelet-derived growth factor receptor alpha (Homo sapiens) (UniProt P16234); experiment: Inhibition of recombinant human PDGFRalpha at 10 uM for 10 mins followed by substrate addition in presence of ATP and measured after 60 mins by HTRF assay; details: time 70.0 min
[21] = target: Vascular endothelial growth factor receptor 2 (Homo sapiens) (UniProt P35968); experiment: Inhibition of recombinant human KDR at 10 uM for 10 mins followed by substrate addition in presence of ATP and measured after 100 mins by ADP-Glo kinase assay; details: time 110.0 min
Sequence of Vascular endothelial growth factor receptor 2 (Homo sapiens) (P35968 whole entry): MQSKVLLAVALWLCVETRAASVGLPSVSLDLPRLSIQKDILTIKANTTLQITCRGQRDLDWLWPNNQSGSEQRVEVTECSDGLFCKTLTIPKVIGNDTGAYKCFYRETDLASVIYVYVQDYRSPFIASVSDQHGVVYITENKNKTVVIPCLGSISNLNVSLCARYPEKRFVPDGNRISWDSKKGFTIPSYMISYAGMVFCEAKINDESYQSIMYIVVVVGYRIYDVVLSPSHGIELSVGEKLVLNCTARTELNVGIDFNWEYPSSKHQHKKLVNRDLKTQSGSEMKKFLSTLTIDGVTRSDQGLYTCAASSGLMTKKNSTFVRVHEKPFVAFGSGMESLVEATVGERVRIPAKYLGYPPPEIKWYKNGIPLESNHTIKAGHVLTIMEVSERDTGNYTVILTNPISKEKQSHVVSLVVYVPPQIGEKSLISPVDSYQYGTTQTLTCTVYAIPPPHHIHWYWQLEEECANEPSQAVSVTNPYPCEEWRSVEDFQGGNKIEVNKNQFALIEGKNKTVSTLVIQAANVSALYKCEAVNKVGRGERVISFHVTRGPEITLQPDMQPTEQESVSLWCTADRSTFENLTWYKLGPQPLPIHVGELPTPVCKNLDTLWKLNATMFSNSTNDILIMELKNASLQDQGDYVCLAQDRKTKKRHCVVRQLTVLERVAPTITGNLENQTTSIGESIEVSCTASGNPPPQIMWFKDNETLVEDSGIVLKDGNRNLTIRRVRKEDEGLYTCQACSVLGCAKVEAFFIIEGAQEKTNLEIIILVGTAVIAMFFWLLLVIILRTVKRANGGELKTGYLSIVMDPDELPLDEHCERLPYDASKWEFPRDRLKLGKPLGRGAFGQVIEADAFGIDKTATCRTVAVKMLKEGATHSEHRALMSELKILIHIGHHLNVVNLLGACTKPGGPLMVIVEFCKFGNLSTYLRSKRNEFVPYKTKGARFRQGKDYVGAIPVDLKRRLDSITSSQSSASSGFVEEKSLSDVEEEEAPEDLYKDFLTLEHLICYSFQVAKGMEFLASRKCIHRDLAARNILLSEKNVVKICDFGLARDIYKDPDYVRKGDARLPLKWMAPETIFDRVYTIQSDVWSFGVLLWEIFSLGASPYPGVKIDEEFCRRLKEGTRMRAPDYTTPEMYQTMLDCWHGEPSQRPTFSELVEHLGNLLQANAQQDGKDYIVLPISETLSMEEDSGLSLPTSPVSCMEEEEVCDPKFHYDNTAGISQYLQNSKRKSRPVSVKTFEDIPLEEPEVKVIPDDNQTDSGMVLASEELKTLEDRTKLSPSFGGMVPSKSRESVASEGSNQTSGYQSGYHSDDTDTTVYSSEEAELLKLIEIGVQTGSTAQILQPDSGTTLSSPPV

K562/Adr = experiment: Antiproliferative activity against human Adriamycin-resistant K562/Adr cells assessed as inhibition of cell growth incubated for 48 hrs by MTT assay; type: functional, cell-based
BaF3 [22] = experiment: Antiproliferative activity against mouse BaF3 cells assessed as inhibition of cell growth incubated for 72 hrs by CellTiter-Glo luminescent assay; type: functional, cell-based; details: BaF3, 72 h
K562 [23] = experiment: Induction of apoptosis in human K562 cells assessed as viable cells at 1 uM incubated for 48 hrs by Annexin V-FITC/PI staining based flow cytometry analysis (Rvb=80.89%); type: functional; details: read-out: Activity

- IC50 (BaF3 [2]): 130 nM
- inhibition [4]: 56.4%
- inhibition [5]: 44.2%
- inhibition [9]: 44.2%
- inhibition [10]: Dde
- inhibition [12]: 87.9%
- inhibition [15]: 54.3%
- IC50 (K562 [16]): 740 nM
- inhibition [18]: 41.1%
- IC50 (K-562R): 1910 nM
- inhibition [19]: 56.4%
- inhibition [20]: 87.9%
- inhibition [21]: 47.7%
- IC50 (K562/Adr): 2440 nM
- IC50 (BaF3 [22]): > 20000 nM
SMILES: O=C(Nc1nc2ccc(-c3cn([C@@H]4CN[C@H](C(=O)Nc5ccc(Cl)cc5Cl)C4)nn3)nc2s1)C1CC1
- Activity (K562 [1]): 7.16%
- Activity (HEK293): Non-Toxic
- Activity (K562 [3]): 0.03%
- Activity (K562 [6]): 0.01%
- Activity (K562 [7]): 3.59%
- Activity (K562 [8]): 37.12%
- Activity (K562 [11]): 19.42%
- Activity (K562 [13]): 4.85%
- Activity (K562 [14]): Active
- Activity (K562 [17]): 43.12%
- viability at 1 µM (K562 [23]): 76.9%
